Where two headings read alike, the source gives them in different places.
Legend:
human cadaver skin [1] = settings: for increase in the rate of delivery of ketoprofen: electrotransport, versus control (no enhancer); for Normalized Skin Resistance: ketoprofen electrotransport, steady state, divided by control (no enhancer), 100 μA/cm^2, 32° C.
Experimental: (§1) Skin strips having a thickness of 1 mm were removed from a human cadaver with an electric dermatome. These skin strips were placed in polyethylene bags, sealed and placed in a refrigerator at 4° C. for temporary storage. Prior to use in an electrotransport cell, the skin strips were placed in 1 liter beakers containing water at 60° C. for about 90 seconds, and gently stirred. The skin strips were then removed, and placed onto the absorbent side of a piece of BENCHKOTE fabric with their dermis side down. The epidermis was removed from each strip with a round-tip spatula, and flat tipped tweezers to retain the dermis. Each epidermis, stratum corneum side up, was then transferred to a 5 cm deep PYREX glass tray filled with water. Each floating epidermis was stretched essentially flat, and then removed from the water, and 2.2 cm diameter disks of each epidermis were punched out of areas having no observable surface damage. The disks were stored at 4° C. in a sealed container with water droplets to maintain their moisture.
(§2) The disks were mounted between the donor and receptor compartments, with the stratum corneum side facing the donor compartment, of a 2-compartment polycarbonate electrotransport permeation cell. The volume of each compartment was about 2 mL and the area between the two compartments, ie, the exposed area for transport, was about 1.26 cm^2.
(§3) An aqueous solution of the drug being transdermally delivered and the selected permeation enhancer composition, if any, was placed in the donor compartment. Dulbecco's phosphate buffered saline (approximately 0.15N NaCl, pH 7.0) was placed in the receptor compartment.
(§4) The rate of transport of drug and the electrical resistance of the skin were monitored throughout the experiments while applying an electric current.
(§5) The cell was maintained at 32° C. by a Haake Model D1 heating block/water bath. The electrodes were connected to a galvanostat, which applied a constant current of 126 μA (current density of 100 μA/cm^2) and monitored the voltage drop across the skin by placing two Ag/AgCl junction reference electrodes, one each in the donor and receptor solutions, and measuring the voltage difference (AV) between the electrodes.
(§6) The resistance of the skin (R) was obtained from Ohm's law:
(§7) where i equals the applied current (ie, 126 μA).
The following experiments were conducted to assess the effect of one composition of the invention, containing ethanol and dodecanol, on the transdermal delivery of sodium ketoprofen (ketoprofen anions) by electrotransport from a cathodic electrode. The electrotransport delivery of ketoprofen in the presence of various enhancers was assessed side-by-side for comparative purposes. The enhancers used were as follows: (i) ethanol alone; (ii) dodecanol alone; (iii) no enhancer; (iv) ethanol and dodecanol. […] A silver chloride composite polymer electrode (cathode) was placed in the donor compartment, and a silver foil electrode (anode) was placed in the receptor compartment.
Each experiment was started by connecting the power source to the electrodes, and samples were automatically taken from the receptor compartment every one to two hours, except for overnight experimentation, using an Isco Model 2230 autosampler and a metering pump. The concentration of ketoprofen in the samples was determined by high performance liquid chromatography (HPLC) using a Shimadzu Model SCL-6B chromatograph. Each run was conducted in triplicate, including the control, to minimize errors. All cells were set-up with tissue from the same cadaver. The selected permeation enhancer composition was placed in the donor compartment, while the control cell's donor compartment contained no enhancer.

human cadaver skin [2] = settings: for Normalized Skin Resistance (after 5 hrs): metoclopramide electrotransport, n=3, 100 μA/cm^2, 32° C.
Experimental: as §1, §2, §3, §4, §5, §6, §7
The experimental conditions were identical to those described in Example 1, except an aqueous solution of metoclopramide HCl, instead of sodium ketoprofen, was placed in the donor compartment. In addition, the silver chloride cathode was placed in the receptor compartment and the silver foil anode was placed in the donor compartment since metoclopramide ions are cationic as opposed to ketoprofen ions which are anionic. The concentration of metoclopramide in the donor solution was about 100 mg metoclopramide/mL, and saline pH 7 was placed in the receptor compartment. The system was maintained at 32° C. and a constant electric current of 100 μA/cm^2 was applied throughout the procedure.
The mass flux and skin resistance values were normalized versus the control. […] The skin resistance (which was calculated from the measured cell voltage ΔV using Ohm's law, […]) was also normalized with respect to the value obtained by electrotransport of metoclopramide in the absence of any permeation enhancer (rightmost column).

skin [3] = settings: relative to sotalol alone (control); no current; cited from earlier work
skin [4] = settings: cited from earlier work; for rate of electrotransport of sotalol (in words): compared to electrotransport without DDAA or azone (control)

## CCCCCCCCCCCCO [Dodecanol, dodecanol]
Human cadaver skin [1]
  reduction in skin resistance: ~60%
  increase in the rate of delivery of ketoprofen: 93%
Human cadaver skin [1]; enhancer dodecanol <100 mM
  Normalized Skin Resistance: 0.39

## CCO [Ethanol, ethanol]
Human cadaver skin [1]
  reduction in skin resistance: > 50%
  increase in the rate of delivery of ketoprofen: 24%
Human cadaver skin [1]; enhancer 25% v/v ethanol
  Normalized Skin Resistance: 0.47
Human cadaver skin [1]; in words, said to be confirmed in Example 2
  effect of difference in ethanol concentration (25% v/v alone, 20% v/v with dodecanol): does not significantly alter its effect
Human cadaver skin [2]
  mass flux of metoclopramide (in words): not to enhance, but to actually decrease, the mass flux of metoclopramide
Human cadaver skin [2]; ethanol 10 wt %, versus no enhancer
  Normalized Skin Resistance (after 5 hrs): 1.32
Human cadaver skin [2]; ethanol 20 wt %, versus no enhancer
  Normalized Skin Resistance (after 5 hrs): 1.13
Human cadaver skin [2]; ethanol 30 wt %, versus no enhancer
  Normalized Skin Resistance (after 5 hrs): 1.26
Human cadaver skin [2]; ethanol alone, versus no enhancer
  resistance of the skin during electrotransport delivery of metoclopramide (in words): increase the resistance of the skin

## CCCCCCCCCCCCN1CCCCCC1=O [azone]
Skin [3]
  rate of passive permeation of sotalol (in words): increase the rate of passive permeation
Skin [4]
  rate of electrotransport of sotalol (in words): actually reduced the rate of electrotransport delivery of the agent

## CC(C)NCC(O)c1ccc(NS(C)(=O)=O)cc1 (centres unmarked) [sotalol]
Skin [4]; compared to its passive rate (control)
  rate of delivery of sotalol with passage of an electric current (in words): increase the rate of delivery of sotalol compared to that of its passive rate

## N, N-dimethylamino acetate [DDAA]
Skin [3]
  rate of passive permeation of sotalol (in words): increase the rate of passive permeation
Skin [4]
  rate of electrotransport of sotalol (in words): actually reduced the rate of electrotransport delivery of the agent

Source: patent US5861439A, “Method for enhanced electrotransport agent delivery” (priority 1994, dated 1999)
